Data published in article PMC3941082 (Journal of electroanalytical chemistry (Lausanne, …, 2014).

Target: Concanavalin A (Con A), as Con A-ALP conjugate (Canavalia ensiformis, UniProt P02866)
Assay: competitive electrochemical lectin assay
Format: binding

Sequence of Concanavalin A (Con A), as Con A-ALP conjugate (P02866 164-281 limits assumed): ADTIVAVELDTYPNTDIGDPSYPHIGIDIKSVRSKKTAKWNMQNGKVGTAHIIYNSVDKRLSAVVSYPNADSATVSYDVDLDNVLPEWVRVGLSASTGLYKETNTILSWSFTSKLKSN
Sequence of Concanavalin A (Con A), as Con A-ALP conjugate (P02866 30-148 limits assumed): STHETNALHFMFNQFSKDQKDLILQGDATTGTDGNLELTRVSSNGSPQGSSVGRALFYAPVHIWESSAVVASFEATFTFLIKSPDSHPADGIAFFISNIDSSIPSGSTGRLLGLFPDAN

With `CO[C@H]1O[C@H](CO)[C@@H](O)[C@H](O)[C@@H]1O` [methyl α-D-mannopyranoside] the IC50 was about 90 µM.
